In assay [1] the target is T1, human RORγt (Ligand Binding Domain) (Homo sapiens, UniProt P51449).
T1 construct: purchased Crelux (Planegg, Germany) batch no PC5032-1
T1 sequence (P51449 269-508 limits assumed): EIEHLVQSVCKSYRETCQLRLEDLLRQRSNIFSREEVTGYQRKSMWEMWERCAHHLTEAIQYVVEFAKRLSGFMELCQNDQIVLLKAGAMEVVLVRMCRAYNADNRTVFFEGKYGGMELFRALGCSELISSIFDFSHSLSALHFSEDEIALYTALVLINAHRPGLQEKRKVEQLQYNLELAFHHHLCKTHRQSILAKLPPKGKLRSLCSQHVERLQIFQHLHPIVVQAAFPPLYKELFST
The assay is described as follows: Fluorescence Polarization (FP) Assay. Conditions: Fluorescence Polarization (FP) Assay; values given as upper bounds of activity ranges; read-out: FP activity range. As for the experimental part: (§1) The activity of the compounds was evaluated using a Fluorescence Polarization (FP) Assay and, in most cases, a Th17 Assay and/or RORγ Reporter assay (also referred to as Gal4 assay). The FP assay is an in vitro assay monitoring binding within the ligand binding pocket. The RORγ and the Th17 assays are both cell-based assays monitoring functional activity of the compound assayed.
The total volume was 25 μl, in a black Perkin Elmer OptiPlate. As negative control, 1 μl DMSO was used. […] The probe is a fluorescently labeled (TAMRA) RORγt ligand identified by Nuevolution with a total molecular weight of 910 g/mole as shown in Graph A in FIG. 1.

Assay [2] concerns the target T2, yeast Gal4-DNA binding domain fused to the ligand binding domain of human RORγ (Homo sapiens, UniProt P51449).
T2 construct: host or cells: HEK293t
T2 sequence (P51449 269-508 limits assumed): T1 sequence (P51449 269-508 limits assumed)
The assay is described as follows: RORγ Reporter Assay (Gal4). The class given is cell-based. Conditions: values given as lower bounds of ranges; for Gal4 activity range @ 0.1 μM (% inhibition): RORγ Reporter Assay (Gal4) at 0.1 μM; for Gal4 activity range @ 1 μM (% inhibition): RORγ Reporter Assay (Gal4) at 1 μM. The procedure: as §1
Cell-based RORγ functional assays were performed using a commercially available assay product (INDIGO Biosciences, State College, Pa., USA; product # IB04001). The RORγ reporter cells are HEK293t cells transfected with one vector that provides high level constitutive expression of a hybrid protein comprised of the yeast Gal4-DNA binding domain fused to the ligand binding domain of human RORγ, and a second vector comprising the firefly luciferase cDNA functionally linked to the upstream activation sequence (UAS) of yeast Gal4. A suspension of RORγ Reporter Cells was prepared using the protocol and culture medium provided in the kit product, and 100 μl of the Reporter Cell suspension was then dispensed into wells of a white, collagen-treated, 96-well assay plate. Concentrated stocks of test compounds were prepared in DMSO, then further diluted using media provided in the kit to generate ‘2×-concentration’ treatment media. 100 μl of medium for each respective treatment concentration dispensed into triplicate assay wells, thereby combining with the reporter cells. All media formulations contained 10% charcoal stripped Fetal Bovine Serum, but are otherwise proprietary to INDIGO Biosciences. Final treatment concentrations for each test compound were 1,000 nM and 100 nM, each with 0.1% residual DMSO. Separate control treatments were media supplemented with vehicle only (0.1% DMSO) to determine the constitutive level of RORγ activity in the reporter cells, and the reference inverse-agonist ursolic acid (f.c. 6,000 nM to 8.2 nM in 3-fold decrements) to establish a positive control inverse-agonist dose response. Assay plates were placed in a 37° C., 5% CO2, 85% humidity incubator for 24 hour. Treatment media were then discarded, 100 μl of luciferase detection reagent was added to each well, and relative light units (RLUs) were quantified from each assay well using a plate reading luminometer. Values of average RLU+/−standard deviation were computed for all treatment sets, followed by the calculations of fold-reduction: [Average RLUVehicle/Average RLUTest Cmpd]. Percent-reduction of RORγ activity in response to respective test compound treatments was calculated: [100*(1−[Ave RLUTest Cmpd/Ave RLUVehicle)] where the theoretical minimum reduction (0% reduction) derives from Vehicle treatment only, no treatment compound.
A general note: A reporter such as luciferase makes a cellular process visible.

Bounds are passed on as bounds.

Regarding `CC(C)(C)C1OCCCC1CNc1ncnc(N2CCC[C@@H]2c2ccc(C(F)(F)F)cc2)c1F` (stereo partly drawn) [Example 175, N-[(2-tert-butyltetrahydropyran-3-yl)methyl]-5-fluoro-6-[(2R)-2-[4-(trifluoromethyl)phenyl]pyrrolidin-1-yl]pyrimidin-4-amine], in assay [1], the IC50 is less than 10 µM.

With `CC(C)C1CCC(CNc2ncnc(N3CCC[C@@H]3c3ccc(C(F)(F)F)cc3)c2F)CC1` (stereo partly drawn) [Example 178, 5-fluoro-N-[(4-isopropylcyclohexyl)methyl]-6-[(2R)-2-[4-(trifluoromethyl)phenyl]pyrrolidin-1-yl]pyrimidin-4-amine], the IC50 in assay [1] is less than 0.5 µM.

With `CC(C)(C)CC(Nc1ncnc(N2CCCC2c2ccc3ncccc3c2)c1F)C(N)=O` (stereo in doubt) [Example 23, (2R)-2-[[5-fluoro-6-[2-(6-quinolyl)pyrrolidin-1-yl]pyrimidin-4-yl]amino]-4,4-dimethyl-pentanamide], the IC50 in assay [1] was less than 0.5 µM.

As for `O=C1CCC(CNc2ncnc(N3CCCC3c3ccc(C(F)(F)F)cc3)c2F)N1` (stereo not drawn) [Example 108, 5-[[[5-fluoro-6-[2-[4-(trifluoromethyl)phenyl]pyrrolidin-1-yl]pyrimidin-4-yl]amino]methyl]pyrrolidin-2-one], the IC50 in assay [1] is less than 10 µM.

`CC(C)(C)C[C@@H](Nc1ncnc(N2CCCC2c2ccc(Cl)cc2Cl)c1F)C(N)=O` (stereo partly drawn) [Example 11, (2R)-2-[[6-[2-(2,4-dichlorophenyl)pyrrolidin-1-yl]-5-fluoro-pyrimidin-4-yl]amino]-4,4-dimethyl-pentanamide]: the IC50 in assay [1] was less than 0.5 µM.

For `NC(=O)Cc1ccc(CNc2ncnc(N3CCCC3c3ccccc3)c2F)cc1` (stereo not drawn) [Example 279, 2-[4-[[[5-fluoro-6-(2-phenylpyrrolidin-1-yl)pyrimidin-4-yl]amino]methyl]phenyl]acetamide], in assay [2], the “Gal4 activity range @ 0.1 μM (% inhibition)” value is more than 20 % inhibition and the “Gal4 activity range @ 1 μM (% inhibition)” value is reported as more than 50 % inhibition.

Take `OCc1cccc(CNc2ncnc(N3CCC[C@@H]3c3ccc(C(F)(F)F)cc3)c2F)c1` [Example 217, [3-[[[5-fluoro-6-[(2R)-2-[4-(trifluoromethyl)phenyl]pyrrolidin-1-yl]pyrimidin-4-yl]amino]methyl]phenyl]methanol]: the IC50 in assay [1] was less than 10 µM.

As for `NC(=O)Cc1ccc(COc2ncnc(N3CCCC3c3ccc(C(F)(F)F)nc3)c2F)cc1` (stereo not drawn) [Example 84, 2-[4-[[5-fluoro-6-[2-[6-(trifluoromethyl)-3-pyridyl]pyrrolidin-1-yl]pyrimidin-4-yl]oxymethyl]phenyl]acetamide], the “Gal4 activity range @ 1 μM (% inhibition)” value in assay [2] is given as more than 20 % inhibition.

With `O=C(O)c1ccc(CNc2ncnc(N3CCCC3c3ccc(C(F)(F)F)cc3)c2F)cc1` (stereo not drawn) [Example 44, 4-[[[5-fluoro-6-[2-[4-(trifluoromethyl)phenyl]pyrrolidin-1-yl]pyrimidin-4-yl]amino]methyl]benzoic acid], the IC50 in assay [1] was less than 10 µM.

Regarding `NC(=O)Cc1ncc(CNc2ncnc(N3CCCC3c3ccc(C(F)(F)F)cc3)c2F)cn1` (stereo not drawn) [Example 87, 2-[5-[[[5-fluoro-6-[2-[4-(trifluoromethyl)phenyl]pyrrolidin-1-yl]pyrimidin-4-yl]amino]methyl]pyrimidin-2-yl]acetamide], in assay [2], the “Gal4 activity range @ 1 μM (% inhibition)” value is more than 20 % inhibition.

Regarding `CC(C)(C)CCNc1ncnc(N2CCCC2c2ccc(C(F)(F)F)cc2)c1F` (stereo not drawn) [Example 21, N-(3,3-dimethylbutyl)-5-fluoro-6-[2-[4-(trifluoromethyl)phenyl]pyrrolidin-1-yl]pyrimidin-4-amine], the IC50 in assay [1] is less than 10 µM.

In the case of `CC1(C)CCC(CNc2ncnc(N3CCC[C@@H]3c3ccc(C(F)(F)F)cc3)c2F)CC1` [Example 166, N-[(4,4-dimethylcyclohexyl)methyl]-5-fluoro-6-[(2R)-2-[4-(trifluoromethyl)phenyl]pyrrolidin-1-yl]pyrimidin-4-amine], the IC50 in assay [1] was less than 0.5 µM.

On to `NC(=O)Cc1ccc(CNc2ncnc(N3C[C@H](F)C[C@@H]3c3ccc(C(F)(F)F)cc3)c2F)cc1` (racemic) [Example 241, 2-[4-[[[5-fluoro-6-[(2R,4R)-4-fluoro-2-[4-(trifluoromethyl)phenyl]pyrrolidin-1-yl]pyrimidin-4-yl]amino]methyl]phenyl]acetamide AND 2-[4-[[[5-fluoro-6-[(2S,4S)-4-fluoro-2-[4-(trifluoromethyl)phenyl]pyrrolidin-1-yl]pyrimidin-4-yl]amino]methyl]phenyl]acetamide], for which the IC50 in assay [1] is less than 1 µM.

Take `O=C(c1ccncc1)N1CCC(Nc2ncnc(N3CCCC3c3ccc(C(F)(F)F)cc3)c2F)C1` (stereo not drawn) [Example 121, [3-[[5-fluoro-6-[2-[4-(trifluoromethyl)phenyl]pyrrolidin-1-yl]pyrimidin-4-yl]amino]pyrrolidin-1-yl]-(4-pyridyl)methanone]: in assay [2], the “Gal4 activity range @ 0.1 μM (% inhibition)” value is more than 20 % inhibition and the “Gal4 activity range @ 1 μM (% inhibition)” value was more than 50 % inhibition.

As for `Cc1nc(CNc2ncnc(N3CCCC3c3ccc(C(F)(F)F)cc3)c2F)ccc1C(C)O` (stereo not drawn) [Example 112, 1-[6-[[[5-fluoro-6-[2-[4-(trifluoromethyl)phenyl]pyrrolidin-1-yl]pyrimidin-4-yl]amino]methyl]-2-methyl-3-pyridyl]ethanol], in assay [2], the “Gal4 activity range @ 0.1 μM (% inhibition)” value is recorded as more than 0 % inhibition and the “Gal4 activity range @ 1 μM (% inhibition)” value is recorded as more than 20 % inhibition.

In the case of `Cc1ccc(CNc2ncnc(-n3nncc3-c3ccc(C(F)(F)F)cc3)c2F)cn1` [Example 96, 5-fluoro-N-[(6-methyl-3-pyridyl)methyl]-6-[5-[4-(trifluoromethyl)phenyl]triazol-1-yl]pyrimidin-4-amine], in assay [2], the “Gal4 activity range @ 0.1 μM (% inhibition)” value is given as more than 0 % inhibition and the “Gal4 activity range @ 1 μM (% inhibition)” value is listed as more than 20 % inhibition.

On to `O=C(O)Cc1ccc(CNc2ncnc(N3CCC[C@@H]3c3ccc(C(F)(F)F)cc3)c2F)cc1` [Example 117, 2-[4-[[[5-fluoro-6-[(2R)-2-[4-(trifluoromethyl)phenyl]pyrrolidin-1-yl]pyrimidin-4-yl]amino]methyl]phenyl]acetic acid], for which the “Gal4 activity range @ 0.1 μM (% inhibition)” value in assay [2] is listed as more than 50 % inhibition.

As for `COc1nc(C)ccc1CNc1ncnc(N2CCCC2c2ccc(C(F)(F)F)cc2)c1F` (stereo not drawn) [Example 99, 5-fluoro-N-[(2-methoxy-6-methyl-3-pyridyl)methyl]-6-[2-[4-(trifluoromethyl)phenyl]pyrrolidin-1-yl]pyrimidin-4-amine], in assay [2], the “Gal4 activity range @ 0.1 μM (% inhibition)” value is reported as more than 20 % inhibition and the “Gal4 activity range @ 1 μM (% inhibition)” value is on record as more than 50 % inhibition.

Regarding `Cc1ccc(CNc2ncnc(N3CCCC3c3ccc(C(F)(F)F)cc3O)c2F)cn1` (stereo not drawn) [Example 104, 2-[1-[5-fluoro-6-[(6-methyl-3-pyridyl)methylamino]pyrimidin-4-yl]pyrrolidin-2-yl]-5-(trifluoromethyl)pheno1], in assay [2], the “Gal4 activity range @ 0.1 μM (% inhibition)” value is reported as more than 0 % inhibition and the “Gal4 activity range @ 1 μM (% inhibition)” value is recorded as more than 20 % inhibition.

`NC(=O)Cc1ncc(COc2ncnc(N3CCCC3c3ccc(C(F)(F)F)cc3)c2F)cn1` (stereo not drawn) [Example 86, 2-[5-[[5-fluoro-6-[2-[4-(trifluoromethyl)phenyl]pyrrolidin-1-yl]pyrimidin-4-yl]oxymethyl]pyrimidin-2-yl]acetamide]: the “Gal4 activity range @ 1 μM (% inhibition)” value in assay [2] is listed as more than 20 % inhibition.

With `O=C1CCCN1Cc1ccc(CNc2ncnc(N3CCCC3c3ccc(C(F)(F)F)cc3)c2F)cc1` (stereo not drawn) [Example 124, 1-[[4-[[[5-fluoro-6-[2-[4-(trifluoromethyl)phenyl]pyrrolidin-1-yl]pyrimidin-4-yl]amino]methyl]phenyl]methyl] pyrrolidin-2-one], in assay [2], the “Gal4 activity range @ 1 μM (% inhibition)” value is recorded as more than 20 % inhibition.
